Results published in patent publication US20110091473A1, “NOVEL ANTIBODY THERAPIES” (GENMAB A/S, priority 2007, published 2011).

Experiments:
CD20 on Daudi cells = target: T1, CD20 on Daudi cells (Homo sapiens, UniProt P11836); test: FACS binding of anti-CD20 mAb to MβCD-treated Daudi cells
T1 construct: endogenous in cells; host or cells: Daudi cells
T1 sequence (P11836 1-297): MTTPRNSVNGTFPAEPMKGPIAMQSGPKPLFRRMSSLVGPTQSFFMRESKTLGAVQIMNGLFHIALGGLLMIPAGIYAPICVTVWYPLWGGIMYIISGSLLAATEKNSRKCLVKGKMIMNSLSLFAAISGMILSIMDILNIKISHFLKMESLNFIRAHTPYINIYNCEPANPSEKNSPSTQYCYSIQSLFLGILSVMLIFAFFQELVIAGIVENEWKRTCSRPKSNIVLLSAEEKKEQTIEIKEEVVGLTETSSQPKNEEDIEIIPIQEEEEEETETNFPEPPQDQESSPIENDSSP
Description: To deplete cholesterol from the cell membrane, methyl-beta-cyclodextrin (MβCD, Sigma, Zwijndrecht, The Netherlands) was added in varying concentrations to Daudi cells and RAJI-CD20high cells and incubated for 30 minutes at 37° C. under gentle shaking conditions. After incubation the cells were washed twice in PBS and resuspended in test medium to a concentration of 2×10^6 viable cells/ml. […] After washing twice with FACS buffer (PBS, 0.1% Bovine Serum Albumine, 0.02% Sodium Azide), cells were analyzed on a FACS Calibur (Becton Dickinson, Breda, The Netherlands). […] Binding is expressed as mean fluorescence intensity.
Cholesterol was depleted from the cell membrane of various B cells using varying concentrations of MβCD (as described in Example 2). Cells (1×10^5 cells/staining) were incubated with a serial dilution of human CD20 mAb 2F2 starting at saturating concentrations for 30 minutes at 4° C. After washing with FACS buffer, polyclonal rabbit-anti-human IgG-FITC (DAKO A/S, Denmark) was added for 30 minutes at 4° C. The cells were washed again, resuspended in FACS buffer and analyzed by flow cytometry. The mean fluorescence intensity (MFI) is a measure for CD20 binding of the mAb. Sigmoidal dose-response curves were calculated using non-linear regression and the EC50 of mAb binding were determined (using GraphPad Prism 4 statistical software).

CD20 on WIL2-S cells = target: T2, CD20 on WIL2-S cells (Homo sapiens, UniProt P11836); test: Binding of anti-CD20 mAb to WIL2-S cells with varied cholesterol content; settings: for affinity in binding to cholesterol-depleted cells: WIL2-S cells depleted with lovastatin; for binding affinity after addition of cholesterol: cholesterol added to non-treated control WIL2-S cells; for binding affinity after replenishing of cholesterol: lovastatin-treated WIL2-S cells replenished with cholesterol
T2 construct: endogenous in cells; host or cells: WIL2-S cells
T2 sequence (P11836 1-297): T1 sequence (P11836 1-297)
Description: To reconstitute cholesterol into the cell membrane of the cells or increase the cholesterol content of the untreated cells, cholesterol (ICN Biomedicals, Zoetermeer, The Netherlands) was added to the test medium in a final concentration of 5 mg/ml 2 hours prior to FACS analysis. The cells were incubated for 30 minutes at 37° C. under gentle shaking conditions, after which the cells were washed twice in PBS and resuspended to 2×10^6 viable cells/ml. For comparison MβCD- and lovastatin-treated cell lines treated with only diluent were included.
To confirm that lovastatin treatment might result in a change in CD20 mAb binding affinity lovastatin-treated RAJI cells were stained with a concentration curve of CD20 mAb. […] After washing with FACS buffer, polyclonal rabbit-anti-human IgG-FITC (DAKO A/S, Denmark) was added for 30 minutes at 4° C. to detect the bound CD20 mAb. Cells were washed again, resuspended in FACS buffer and analyzed on a flow cytometer. The mean fluorescence intensity (MFI) was taken as measure for CD20 binding of the mAb.
Binding of anti-CD20 mAb to CD20 on various B cell lines could be restored upon replenishment of the cell membrane cholesterol content via addition of cholesterol (according to procedure as described in Example 4) to either MβCD- or lovastatin-treated cells, as measured by FACS analysis (FIG. 3). This was also observed for WIL2-S cells for which binding affinity of anti-CD20 mAbs to CD20 was determined after reconstitution of cholesterol of cholesterol-depleted cells using flow cytometry (FIG. 13).

Daudi cells [1] = test: CD20 mAb-induced CDC of Daudi cells, PI/FACS analysis; type: cell-based, human; settings: for induction of CDC: non-treated Daudi cells, 15% normal human serum
Description: Cells were either non-treated or cholesterol-depleted as described in Example 2, Example 3 and Example 4, and resuspended in test medium to a concentration of 2×10^6 viable cells/ml. Daudi cells were used as target cells in a mAb-induced CDC assay. 50 μl of cell suspension was incubated with 50 μl anti-CD20 mAb in a serial dilution for 15 minutes at room temperature. After the incubation period, Normal Human Serum (M0008, Sanquin, Amsterdam, The Netherlands) was added as a source of complement (final concentration, 15%) to the cell suspension in round-bottomed microtiter plates (Nunc, Rochester, N.Y.). The mixture was incubated for 45 minutes at 37° C. after which the reaction was stopped by placing the samples on ice. Propidium iodide (PI, Sigma Aldrich, Zwijndrecht, The Netherlands) was added as a means to visualize the DNA content which becomes accessible upon permeabilisation of the cell membrane. The amount of PI-positive cells is directly correlated to the amount of dead cells, and measured using flow cytometry.

WIL2-S cells = test: CD20 mAb-induced CDC of WIL2-S cells, PI/FACS analysis; type: cell-based, human; settings: for CDC inducing capacity after cholesterol replenishment: WIL2-S cells, cholesterol replenished; for sensitivity for CDC induction: lovastatin-treated vs non-treated WIL2-S cells
RAJI cells = test: CDC of RAJI cells, MTT analysis; type: cell-based, human
Description: CDC was induced by incubating B cells with anti-CD20 mAb (as described in Example 2). After 1-hour incubation (3-(4,5-dimethylthiazol-2-yl)-2,5-diphenyltetrazolium bromide (MTT) solution (5 mg/ml, Roche, Diagnostics, Almere, The Netherlands) was added to each well (flat-bottom microtiter plates; Nunc, Rochester, N.Y.). The reaction was stopped after 4 hours of incubation at 37° C. by the addition of 100 μl of 20% SDS (Roche Diagnostics, Almere, The Netherlands). After overnight incubation at 37° C. the absorbance of the samples was measured at 550-525 nm using an Elisa reader (EL808x, Biotek instruments, Highland park, Vt., USA). Cytotoxicity was expressed as a relative viability of the stimulated cells compared to cells incubated with medium only and was calculated as follows: relative viability=[(Ae−Ab)/(Ac−Ab)]*100, where Ab is the background absorbance, Ae is experimental absorbance of the lysed cells and Ac is the absorbance of untreated cells. The viability was expressed as percentage survival in comparison to non-cholesterol depleted cells (control).

Daudi cells [2] = test: CDC of Daudi cells, Alamar Blue assay; type: cell-based, human

Row | reduction of binding affinity for CD20 (increase in EC50) (CD20 on Daudi cells; 0 mg/ml vs 5 mg/ml MβCD, Daudi cells) [fold] | binding of FITC-conjugated mAb (mean fluorescence intensity) (CD20 on Daudi cells; Daudi cells treated with varying concentrations of MβCD, 30 min) | Substance | affinity in binding to cholesterol-depleted cells (CD20 on WIL2-S cells) | binding affinity after addition of cholesterol (CD20 on WIL2-S cells) | binding affinity after replenishing of cholesterol (CD20 on WIL2-S cells) | cells lysed via CDC (Daudi cells [1]; cholesterol-depleted Daudi cells) [%] | induction of CDC (Daudi cells [1]) | CDC inducing capacity after cholesterol replenishment (WIL2-S cells) | sensitivity for CDC induction (WIL2-S cells) | potency to lyse cells in presence of complement, compared with rituximab (RAJI cells; RAJI cells depleted of cholesterol with MβCD) | potency in inducing cell lysis, compared with rituximab or 11B8 (Daudi cells [2]; Daudi cells) | CDC induction when treating cells with lovastatin (Daudi cells [2]; lovastatin-treated Daudi cells) | survival upon mAb-induced CDC (Daudi cells [2]; lovastatin-treated Daudi cells) | binding affinity upon cholesterol depletion (CD20 on Daudi cells; MβCD-treated Daudi cells) | CDC-mediated lysis (Daudi cells [1]; cholesterol-depleted (lovastatin or MβCD) Daudi cells) | survival after CDC induction (RAJI cells; RAJI cells depleted by lovastatin or MβCD vs non-treated) | capability to lyse cells after cholesterol replenishment (RAJI cells; depleted RAJI cells replenished with cholesterol vs non-treated)
1 | ~8 | dose-dependent decrease in binding | 2F2: human anti-CD20 mAb, VH SEQ ID NO:1, VL SEQ ID NO:2, disclosed in WO 2004/035607 | reduced affinity | further improved the binding affinity | restores affinity to the level of non-treated cells | 50 | induced CDC | fully restored | less sensitive | more potent | more potent | still capable of inducing CDC | enhanced survival |  |  |  | 
2 |  |  | rituximab: anti-CD20 antibody Rituxan/MabThera, type I | reduced affinity | further improved the binding affinity | restores affinity to the level of non-treated cells |  | induced CDC | fully restored | less sensitive |  |  |  | enhanced survival | negatively affected | abrogated | enhanced survival | further increased the capability
